“And” between values parts separate entries of the source, which are not always exact repeats. Equal entries are not always repeated. Inconclusive results and toxic doses are left out.

The subject of this assay is BDF1 mice, B16 melanoma ip, median survival T/C. The assay can be described thus: NCI In Vivo Anticancer Drug Screen. Data for tumor model B16 Melanoma (intraperitoneal) in B6D2F1 (BDF1) mice. The following applies: endpoint: median survival time, higher = longer survival. Summed up:
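Transplantable tumor model; survival or tumor size measured; reported as T/C, treated over vehicle control.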

Setting [1] is: dose: 100.0 mg/kg/injection, schedule: Q01DX009 (ip), vehicle: saline with Tween-80.
Where [2] appears, read: dose: 200.0 mg/kg/injection, schedule: Q01DX009 (ip), vehicle: saline with Tween-80.
The mark [3] stands for this setting: dose: 100.0 mg/kg/injection, schedule: Q01DX009 (ip), vehicle: Klucel (hydroxypropylcellulose) (HPC).
The mark [4] stands for this setting: dose: 200.0 mg/kg/injection, schedule: Q01DX009 (ip), vehicle: Klucel (hydroxypropylcellulose) (HPC).
Setting [5] is: dose: 400.0 mg/kg/injection, schedule: Q01DX009 (ip), vehicle: Klucel (hydroxypropylcellulose) (HPC).
Where [6] appears, read: dose: 25.0 mg/kg/injection, schedule: Q01DX009 (ip), vehicle: saline.
Setting [7] is: dose: 50.0 mg/kg/injection, schedule: Q01DX009 (ip), vehicle: saline.
Where [8] appears, read: dose: 100.0 mg/kg/injection, schedule: Q04DX003 (ip), vehicle: saline with Tween-80.
[9] abbreviates: dose: 6.25 mg/kg/injection, schedule: Q01DX009 (ip), vehicle: saline with Tween-80.
[10] abbreviates: dose: 12.5 mg/kg/injection, schedule: Q01DX009 (ip), vehicle: saline with Tween-80.
[11] abbreviates: dose: 25.0 mg/kg/injection, schedule: Q01DX009 (ip), vehicle: saline with Tween-80.
Where [12] appears, read: dose: 50.0 mg/kg/injection, schedule: Q04DX003 (ip), vehicle: saline with Tween-80.
Where [13] appears, read: dose: 12.5 mg/kg/injection, schedule: Q01DX009 (ip), vehicle: saline.

As for `N#CCc1ccccc1C(=O)O`, where the note is “dose: 100.0 mg/kg/injection, schedule: Q04DX003 (ip), vehicle: gum acacia”, the T/C was 97 % of control.
Take `CN(C)NCCN1CCN(CCCN2c3ccccc3Sc3ccc(C(F)(F)F)cc32)CC1`: the T/C is 93 % of control (dose: 3.75 mg/kg/injection, schedule: Q01DX009 (ip), vehicle: saline) and 112 % of control (dose: 7.5 mg/kg/injection, schedule: Q01DX009 (ip), vehicle: saline).
On to `CC(C)COC(=O)c1ccc(NC(=O)Nc2ccccc2)cc1`, for which the T/C is 93 % of control under setting [1]; 102 % of control under setting [2]; 97 % of control (dose: 400.0 mg/kg/injection, schedule: Q01DX009 (ip), vehicle: saline with Tween-80).
Consider `O=NN(CCF)C(=O)NC1CCC(=O)NC1=O` (stereo unspecified), for which the T/C was 105 % of control (dose: 1.88 mg/kg/injection, schedule: Q01DX001 (ip), vehicle: saline); 120 % of control (dose: 7.5 mg/kg/injection, schedule: Q01DX001 (ip), vehicle: saline); 166 % of control (dose: 15.0 mg/kg/injection, schedule: Q01DX001 (ip), vehicle: saline); 189 % of control (dose: 30.0 mg/kg/injection, schedule: Q01DX001 (ip), vehicle: saline); 209 % of control (dose: 60.0 mg/kg/injection, schedule: Q01DX001 (ip), vehicle: saline).
Take `O=C1NC(=S)S/C1=C\c1ccc(Cl)c(Cl)c1`: the T/C runs as follows: under setting [3], 88 % of control; (dose: 100.0 mg/kg/injection, schedule: Q04DX003 (ip), vehicle: Klucel (hydroxypropylcellulose) (HPC)) 88 % of control; under setting [4], 97 % of control; (dose: 200.0 mg/kg/injection, schedule: Q04DX003 (ip), vehicle: Klucel (hydroxypropylcellulose) (HPC)) 93 % of control; under setting [5], 97 % of control; (dose: 400.0 mg/kg/injection, schedule: Q04DX003 (ip), vehicle: Klucel (hydroxypropylcellulose) (HPC)) 88 % of control.
`CCC(N)CC`: the T/C under setting [6] is 102 % of control and the T/C under setting [7] was 117 % of control.
On to `CCC(=O)Nc1cccc(Cl)c1`, for which the T/C was 110 % of control (dose: 75.0 mg/kg/injection, schedule: Q04DX003 (ip), vehicle: saline with Tween-80); 97 % of control (dose: 150.0 mg/kg/injection, schedule: Q04DX003 (ip), vehicle: saline with Tween-80); 100 % of control (dose: 300.0 mg/kg/injection, schedule: Q04DX003 (ip), vehicle: saline with Tween-80).
Take `CC12NC(=O)NC1(C)NC(=O)N2` (stereo unspecified): the T/C under setting [8] is 100 % of control.
`CCN(CCP(c1ccccc1)c1ccccc1)CCP(c1ccccc1)c1ccccc1`: the T/C was 119 % of control (dose: 3.13 mg/kg/injection, schedule: Q01DX009 (ip), vehicle: saline with Tween-80); 113 % of control under setting [9]; 90 % of control and 115 % of control under setting [10]; 104 % of control (dose: 12.5 mg/kg/injection, schedule: Q04DX003 (ip), vehicle: saline with Tween-80); 100 % of control under setting [11]; 107 % of control (dose: 25.0 mg/kg/injection, schedule: Q04DX003 (ip), vehicle: saline with Tween-80). In addition, the T/C under setting [12] was 109 % of control.
Turning to `O=[N+]([O-])/C=C/c1ccc([N+](=O)[O-])cc1Cl`, the T/C (dose: 0.18 mg/kg/injection, schedule: Q01DX009 (ip), vehicle: Klucel (hydroxypropylcellulose) (HPC)) was 111 % of control; the T/C (dose: 0.37 mg/kg/injection, schedule: Q01DX009 (ip), vehicle: Klucel (hydroxypropylcellulose) (HPC)) was 96 % of control; the T/C (dose: 0.75 mg/kg/injection, schedule: Q01DX009 (ip), vehicle: Klucel (hydroxypropylcellulose) (HPC)) was 87 % of control and 90 % of control.
In the case of `Cc1ccc(NS(=O)(=O)c2ccc(F)cc2)c(C)c1`, the T/C is, setting by setting: under setting [3], 106 % of control; under setting [4], 110 % of control; under setting [5], 93 % of control.
As to `O=P1(NCCCl)OCCCN1CCCl` (stereo unspecified), the T/C is, setting by setting: under setting [13], 109 % of control; under setting [6], 103 % of control and 111 % of control and 119 % of control; (dose: 25.0 mg/kg/injection, schedule: Q01DX009 (ip), vehicle: water) 104 % of control and 121 % of control; (dose: 25.0 mg/kg/injection, schedule: Q02DX009 (ip), vehicle: saline) 100 % of control and 107 % of control; (dose: 25.0 mg/kg/injection, schedule: Q02DX009 (ip), vehicle: water) 114 % of control; under setting [7], 90 % of control and 111 % of control and 116 % of control. The T/C reads like this: (dose: 50.0 mg/kg/injection, schedule: Q02DX009 (ip), vehicle: water) 124 % of control; (dose: 100.0 mg/kg/injection, schedule: Q01DX009 (ip), vehicle: water) 169 % of control; (dose: 200.0 mg/kg/injection, schedule: Q02DX009 (ip), vehicle: water) 122 % of control.
`CN(C)N=Nc1ccc(S(N)(=O)=O)cc1`: the T/C was 116 % of control (dose: 25.0 mg/kg/injection, schedule: Q01DX009 (ip), vehicle: Klucel (hydroxypropylcellulose) (HPC)); 111 % of control (dose: 50.0 mg/kg/injection, schedule: Q01DX009 (ip), vehicle: Klucel (hydroxypropylcellulose) (HPC)); 98 % of control under setting [3].
For the compound `O/N=C\c1ccc(/C=N/O)cc1`, the T/C is, setting by setting: under setting [12], 119 % of control; under setting [8], 119 % of control; (dose: 200.0 mg/kg/injection, schedule: Q04DX003 (ip), vehicle: saline with Tween-80) 111 % of control.
`CNCC(C)(C)c1ccccc1`: the T/C (dose: 6.25 mg/kg/injection, schedule: Q01DX009 (ip), vehicle: saline) was 102 % of control; the T/C under setting [13] is 90 % of control; the T/C under setting [6] is 102 % of control; the T/C under setting [7] was 100 % of control.
As to `COC1C(O)CC(OC2C(C)OC(Oc3cc(O)c4c(O)c5c(cc4c3)C[C@@H]([C@H](OC)C(=O)[C@@H](O)[C@@H](C)O)[C@H](OC3CC(OC4CC(OC6CC(C)(O)C(O)C(C)O6)C(O)C(C)O4)C(O)C(C)O3)C5=O)CC2OC(C)=O)OC1C` (stereo partly specified), the T/C is, setting by setting: (dose: 37.5 mg/kg/injection, schedule: Q01DX009 (ip), vehicle: saline) 110 % of control; (dose: 75.0 mg/kg/injection, schedule: Q01DX009 (ip), vehicle: saline) 113 % of control; (dose: 150.0 mg/kg/injection, schedule: Q01DX009 (ip), vehicle: saline) 111 % of control.
Consider `CC(=O)CC(=O)Nc1cc(C)c(NC(=O)CC(C)=O)cc1C`, for which the T/C reads like this: under setting [3], 93 % of control; under setting [4], 93 % of control.
In the case of `Cc1ccc(C)c(NC(=O)c2ccccc2Cl)c1`, the T/C runs as follows: under setting [3], 118 % of control; under setting [4], 93 % of control; under setting [5], 109 % of control.
As to `CC(C)=CC(=O)CC(O)(C(F)(F)F)C(F)(F)Cl` (stereo unspecified), the T/C reads like this: under setting [9], 97 % of control; (dose: 6.25 mg/kg/injection, schedule: Q04DX003 (ip), vehicle: saline) 100 % of control; under setting [10], 90 % of control; (dose: 12.5 mg/kg/injection, schedule: Q04DX003 (ip), vehicle: saline) 89 % of control; under setting [11], 92 % of control; (dose: 25.0 mg/kg/injection, schedule: Q04DX003 (ip), vehicle: saline) 89 % of control.
As for `NC(=O)c1ccccc1C(N)=O`, the T/C by setting is: under setting [3], 100 % of control; under setting [4], 106 % of control; under setting [5], 93 % of control.
For `Cc1ccc(C(C)(N=[N+]=[N-])c2ccccc2)cc1C` (stereo unspecified), the T/C is 94 % of control under setting [11]; 93 % of control (dose: 50.0 mg/kg/injection, schedule: Q01DX009 (ip), vehicle: saline with Tween-80); 90 % of control under setting [1]; 90 % of control under setting [2].
For `O=C1NC(=O)C([N+](=O)[O-])=C(O)C1=O`, the T/C (dose: 75.0 mg/kg/injection, schedule: Q04DX003 (ip), vehicle: other) was 105 % of control and the T/C (dose: 150.0 mg/kg/injection, schedule: Q04DX003 (ip), vehicle: other) is 95 % of control.
As to `CC(C)(O)C1OCC(C2CCC3(C)C4=CCC5C(C)(C)C(O)CCC5(C)C4CCC23C)CC1O` (stereo unspecified), the T/C is, setting by setting: (dose: 2.5 mg/kg/injection, schedule: Q01DX009 (ip), vehicle: Klucel (hydroxypropylcellulose) (HPC)) 102 % of control; (dose: 5.0 mg/kg/injection, schedule: Q01DX009 (ip), vehicle: Klucel (hydroxypropylcellulose) (HPC)) 98 % of control; (dose: 10.0 mg/kg/injection, schedule: Q01DX009 (ip), vehicle: Klucel (hydroxypropylcellulose) (HPC)) 89 % of control.

The values are drawn from PubChem BioAssay AID192 (DTP/NCI, 2004).
